This note sets out measurements from ChEMBL document CHEMBL5143714, “Discovery of BMS-986339, a Pharmacologically Differentiated Farnesoid X Receptor Agonist for the Treatment of Nonalcoholic Steatohepatitis” (J Med Chem, 2022).

A word on the IC50: it is the midpoint of a concentration-inhibition curve. Broadly, the half-life is the time needed for the level to fall by half in the phase considered. For orientation: AUC means concentration integrated over time. A word on the Emax: it is the greatest response seen or fitted, relative to the assay's reference. As a reminder, the EC50 is the concentration needed to bring the measured effect to its halfway point. Read a low EC50 as higher potency in that assay.

The target in series [1] is Voltage-gated inwardly rectifying potassium channel KCNH2 (Homo sapiens, UniProt Q12809). The series can be described thus: Inhibition of hERG by patch clamp assay. Type of series: toxicity. In general terms: hERG is a cardiac potassium channel; its block is linked to QT prolongation.
Voltage-gated inwardly rectifying potassium channel KCNH2, sequence (Q12809 whole entry): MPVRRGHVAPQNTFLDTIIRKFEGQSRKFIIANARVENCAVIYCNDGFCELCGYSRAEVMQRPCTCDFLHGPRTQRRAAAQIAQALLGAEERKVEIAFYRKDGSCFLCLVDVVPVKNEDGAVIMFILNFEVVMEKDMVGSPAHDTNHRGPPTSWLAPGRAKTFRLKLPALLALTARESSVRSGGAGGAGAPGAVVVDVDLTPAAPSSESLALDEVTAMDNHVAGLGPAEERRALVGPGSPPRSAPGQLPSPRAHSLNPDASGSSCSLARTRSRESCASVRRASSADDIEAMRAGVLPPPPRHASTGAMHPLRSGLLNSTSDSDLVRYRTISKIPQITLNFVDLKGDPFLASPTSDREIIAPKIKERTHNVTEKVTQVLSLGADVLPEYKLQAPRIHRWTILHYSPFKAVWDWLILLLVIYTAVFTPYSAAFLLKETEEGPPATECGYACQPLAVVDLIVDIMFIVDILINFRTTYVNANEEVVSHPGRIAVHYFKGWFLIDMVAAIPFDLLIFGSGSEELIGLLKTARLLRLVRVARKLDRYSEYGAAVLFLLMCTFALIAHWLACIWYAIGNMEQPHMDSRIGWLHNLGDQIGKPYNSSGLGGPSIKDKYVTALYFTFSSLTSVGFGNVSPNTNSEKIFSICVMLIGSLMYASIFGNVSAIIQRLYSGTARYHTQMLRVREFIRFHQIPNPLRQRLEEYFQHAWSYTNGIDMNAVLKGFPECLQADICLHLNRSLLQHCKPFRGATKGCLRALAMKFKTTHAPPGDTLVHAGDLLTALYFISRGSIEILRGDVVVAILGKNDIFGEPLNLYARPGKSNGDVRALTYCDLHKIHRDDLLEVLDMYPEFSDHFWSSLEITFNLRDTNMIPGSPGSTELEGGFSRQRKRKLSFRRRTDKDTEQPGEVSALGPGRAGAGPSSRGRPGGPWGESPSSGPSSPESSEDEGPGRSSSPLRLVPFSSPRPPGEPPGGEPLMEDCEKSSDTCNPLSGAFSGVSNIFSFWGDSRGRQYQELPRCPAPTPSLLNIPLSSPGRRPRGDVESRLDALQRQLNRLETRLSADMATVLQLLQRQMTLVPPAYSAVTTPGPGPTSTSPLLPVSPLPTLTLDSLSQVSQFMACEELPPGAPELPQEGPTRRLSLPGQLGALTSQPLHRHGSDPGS
The nature of series [2]: Half life in C57BL6 mouse at 1 mg/kg, iv. It is filed as ADME, organism-based. Particulars: in vivo.
A short description of series [3]: AUC (total) in C57BL6 mouse at 5 mg/kg, po. Type of series: ADME, organism-based. More on the design: dose 5 mg/kg, route po. Particulars: in vivo.
A short description of series [4]: AUC (total) in Sprague-Dawley rat at 1 mg/kg, iv. It is filed as ADME, organism-based. On the set-up: dose 1 mg/kg, route iv. Particulars: in vivo.
Series [5] addresses Cytochrome P450 2C19 (Homo sapiens, UniProt P33261). The experiment in a line: Inhibition of CYP2C19 in human liver microsomes using fluorogenic substrate preincubated for 15 min followed by NADPH addition measured after 2 hrs by fluorescence based assay. Type of series: ADME, Microsome. On the technique in general: Liver microsomes are a subcellular fraction often used to study metabolism.

Series [6] in a line: Metabolic stability in rat liver microsome assessed as parent compound remaining at […] measured after 10 mins. Particulars: liver microsomes, read-out: Stability. Type of series: ADME.
Series [7] concerns the target T1, Bile acid receptor (Mus musculus) (UniProt Q60641).
T1 sequence (whole entry): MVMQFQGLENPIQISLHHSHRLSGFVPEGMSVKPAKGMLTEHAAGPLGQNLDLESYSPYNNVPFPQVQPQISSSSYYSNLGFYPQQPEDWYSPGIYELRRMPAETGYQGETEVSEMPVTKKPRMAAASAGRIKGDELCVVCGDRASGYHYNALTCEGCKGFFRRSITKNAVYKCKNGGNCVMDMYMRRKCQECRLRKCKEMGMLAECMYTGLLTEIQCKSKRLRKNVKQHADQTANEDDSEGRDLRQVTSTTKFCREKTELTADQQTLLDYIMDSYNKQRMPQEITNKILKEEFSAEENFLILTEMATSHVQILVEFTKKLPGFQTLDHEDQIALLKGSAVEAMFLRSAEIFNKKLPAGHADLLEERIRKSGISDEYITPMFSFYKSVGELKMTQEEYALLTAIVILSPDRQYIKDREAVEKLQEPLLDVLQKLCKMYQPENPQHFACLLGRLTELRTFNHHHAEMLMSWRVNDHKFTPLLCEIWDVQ
The experiment in a line: Agonist activity at LBD-fused mouse FXR in HEK293 cells incubated for 30 min by envision plate reader method relative to GW2064. It is filed as cell-based. The following applies: filed as agonist.

In series [8] the test system is Mus musculus. The series can be described thus: Antifibrotic activity against bile duct ligation-induced liver cholestasis C57BL/6NTac mouse model assessed as reduction in collagen level administered orally as single dose for 9 days and measured after 24 hrs post-last dose by picrosirius red staining method. It is filed as functional, organism-based. Particulars: dose 0.3-10 mg/kg, route po, time 9.0 day, DDE = dose-dependent effect.

For series [9], the target named is Bile salt export pump (Homo sapiens, UniProt O95342). The experiment in a line: Inhibition of BSEP (unknown origin).
Bile salt export pump, sequence (O95342 whole entry): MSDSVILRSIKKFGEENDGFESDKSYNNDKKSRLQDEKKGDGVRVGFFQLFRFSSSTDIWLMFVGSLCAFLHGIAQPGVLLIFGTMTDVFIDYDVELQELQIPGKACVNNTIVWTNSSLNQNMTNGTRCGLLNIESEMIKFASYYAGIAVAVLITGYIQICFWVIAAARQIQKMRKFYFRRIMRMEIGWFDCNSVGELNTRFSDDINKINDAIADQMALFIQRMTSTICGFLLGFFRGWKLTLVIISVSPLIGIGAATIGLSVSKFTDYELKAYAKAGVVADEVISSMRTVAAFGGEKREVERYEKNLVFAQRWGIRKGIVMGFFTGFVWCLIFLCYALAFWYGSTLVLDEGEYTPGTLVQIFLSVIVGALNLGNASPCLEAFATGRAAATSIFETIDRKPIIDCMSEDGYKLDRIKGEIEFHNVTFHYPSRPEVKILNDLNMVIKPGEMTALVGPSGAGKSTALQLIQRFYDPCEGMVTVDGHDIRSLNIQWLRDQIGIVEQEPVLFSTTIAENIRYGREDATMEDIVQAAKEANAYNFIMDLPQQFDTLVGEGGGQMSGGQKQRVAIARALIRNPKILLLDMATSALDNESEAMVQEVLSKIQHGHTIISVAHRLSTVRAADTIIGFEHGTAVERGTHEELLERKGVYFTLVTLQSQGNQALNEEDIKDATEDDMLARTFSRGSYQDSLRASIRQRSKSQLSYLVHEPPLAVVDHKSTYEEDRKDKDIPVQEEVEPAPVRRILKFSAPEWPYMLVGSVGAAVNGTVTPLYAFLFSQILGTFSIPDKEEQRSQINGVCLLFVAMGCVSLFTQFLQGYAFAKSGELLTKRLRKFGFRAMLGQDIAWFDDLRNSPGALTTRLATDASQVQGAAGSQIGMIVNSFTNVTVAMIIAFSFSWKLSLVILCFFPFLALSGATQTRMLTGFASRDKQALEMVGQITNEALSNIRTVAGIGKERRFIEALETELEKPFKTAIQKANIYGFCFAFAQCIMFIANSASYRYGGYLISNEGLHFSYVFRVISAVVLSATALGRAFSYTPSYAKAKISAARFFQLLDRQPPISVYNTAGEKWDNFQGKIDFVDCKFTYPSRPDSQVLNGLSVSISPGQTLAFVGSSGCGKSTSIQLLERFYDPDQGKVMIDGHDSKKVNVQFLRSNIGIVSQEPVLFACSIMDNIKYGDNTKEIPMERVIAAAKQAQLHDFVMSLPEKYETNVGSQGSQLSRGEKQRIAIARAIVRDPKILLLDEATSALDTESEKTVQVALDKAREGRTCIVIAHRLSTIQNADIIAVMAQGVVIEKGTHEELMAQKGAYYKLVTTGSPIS
The target in series [10] is Cytochrome P450 2C9 (Homo sapiens, UniProt P11712). The experiment in a line: Inhibition of CYP2C9 in human liver microsomes using fluorogenic substrate preincubated for 15 min followed by NADPH addition measured after 2 hrs by fluorescence based assay. Type of series: ADME, Microsome.
Cytochrome P450 2C9, sequence (P11712 whole entry): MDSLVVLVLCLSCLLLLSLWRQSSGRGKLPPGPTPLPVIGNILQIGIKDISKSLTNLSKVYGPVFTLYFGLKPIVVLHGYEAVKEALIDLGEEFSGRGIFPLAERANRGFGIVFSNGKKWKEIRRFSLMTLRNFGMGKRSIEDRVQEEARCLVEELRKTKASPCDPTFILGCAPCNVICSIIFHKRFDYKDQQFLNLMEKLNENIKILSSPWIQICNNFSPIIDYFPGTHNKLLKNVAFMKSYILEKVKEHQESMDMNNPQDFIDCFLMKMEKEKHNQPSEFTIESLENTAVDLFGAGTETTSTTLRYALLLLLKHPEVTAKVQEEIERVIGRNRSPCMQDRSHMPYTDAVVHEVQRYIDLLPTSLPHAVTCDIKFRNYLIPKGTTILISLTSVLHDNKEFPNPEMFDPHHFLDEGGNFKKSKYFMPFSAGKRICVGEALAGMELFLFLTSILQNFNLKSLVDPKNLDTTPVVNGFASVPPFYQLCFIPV
In series [11] the target is T2, Bile acid receptor (Homo sapiens, UniProt Q96RI1).
T2 sequence (Q96RI1 whole entry): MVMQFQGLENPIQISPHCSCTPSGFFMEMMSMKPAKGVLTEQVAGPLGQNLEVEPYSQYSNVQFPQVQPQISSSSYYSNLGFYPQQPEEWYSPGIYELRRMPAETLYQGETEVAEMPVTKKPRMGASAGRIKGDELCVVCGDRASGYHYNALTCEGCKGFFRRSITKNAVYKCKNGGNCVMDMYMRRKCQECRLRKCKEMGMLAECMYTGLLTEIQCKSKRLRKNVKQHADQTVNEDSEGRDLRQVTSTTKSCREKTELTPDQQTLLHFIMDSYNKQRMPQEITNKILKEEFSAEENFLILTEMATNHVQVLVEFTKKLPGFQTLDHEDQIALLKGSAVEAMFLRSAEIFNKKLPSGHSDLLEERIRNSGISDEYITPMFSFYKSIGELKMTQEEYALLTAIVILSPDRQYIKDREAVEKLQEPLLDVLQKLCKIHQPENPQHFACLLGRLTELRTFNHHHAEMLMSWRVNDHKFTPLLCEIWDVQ
The series can be described thus: Agonist activity at Gal4-fused human FXR in HEK293 cells incubated for 15 min by luciferase reporter assay. It is filed as cell-based. (Reporter assays use an easily measured gene product as a stand-in for the process of interest.)

Series [12] has as its target T3, Cytochrome P450 2C8 (Homo sapiens, UniProt P10632).
T3 sequence (P10632 whole entry): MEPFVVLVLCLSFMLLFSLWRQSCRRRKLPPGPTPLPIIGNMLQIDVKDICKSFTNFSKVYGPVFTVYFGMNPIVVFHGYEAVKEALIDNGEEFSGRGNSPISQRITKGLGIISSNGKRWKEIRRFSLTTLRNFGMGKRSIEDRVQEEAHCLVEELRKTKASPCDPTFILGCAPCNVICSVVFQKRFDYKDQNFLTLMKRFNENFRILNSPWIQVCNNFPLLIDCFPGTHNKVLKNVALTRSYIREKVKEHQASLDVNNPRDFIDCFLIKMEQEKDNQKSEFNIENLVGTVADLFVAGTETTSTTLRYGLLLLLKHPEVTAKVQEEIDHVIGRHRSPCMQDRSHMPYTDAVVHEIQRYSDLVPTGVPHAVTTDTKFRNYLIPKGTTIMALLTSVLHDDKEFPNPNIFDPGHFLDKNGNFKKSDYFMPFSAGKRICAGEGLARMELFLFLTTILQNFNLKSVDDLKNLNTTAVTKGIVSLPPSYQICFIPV
The experiment in a line: Inhibition of CYP2C8 in human liver microsomes using fluorogenic substrate preincubated for 15 min followed by NADPH addition measured after 2 hrs by fluorescence based assay. It is filed as ADME, Microsome.

The test system of series [13] is Mus musculus. The series can be described thus: Antifibrotic activity against bile duct ligation-induced liver cholestasis C57BL/6NTac mouse model assessed as reduction in hydroxyproline level in liver administered orally as single dose for 9 days and measured after 24 hrs post-last dose by picrosirius red staining method. Type of series: functional, organism-based. Particulars: dose 0.3-10 mg/kg, route po, time 9.0 day, DDE = dose-dependent effect.

A short description of series [14]: Genotoxicity in Salmonella typhimurium by Ames test. Type of series: toxicity. Particulars: salmonella enterica subsp. enterica serovar typhimurium.
For series [15], the system named is Bile acid receptor (Homo sapiens). The experiment in a line: Agonist activity at human FXR expressed in HEK293 cells coexpressing human FGF19 incubated for 24 hrs by ELISA analysis relative to GW2064. The following applies: filed as agonist.
Series [16] can be described thus: Half life in Sprague-Dawley rat at 1 mg/kg, iv. It is filed as ADME, organism-based. Particulars: in vivo.
Series [17] concerns the target Cytochrome P450 2D6 (Homo sapiens, UniProt P10635). The series can be described thus: Inhibition of CYP2D6 in human liver microsomes using fluorogenic substrate preincubated for 15 min followed by NADPH addition measured after 2 hrs by fluorescence based assay. It is filed as ADME, Microsome.

SMILES strings stand for the structures.

Cytochrome P450 2C19, sequence (P33261 whole entry): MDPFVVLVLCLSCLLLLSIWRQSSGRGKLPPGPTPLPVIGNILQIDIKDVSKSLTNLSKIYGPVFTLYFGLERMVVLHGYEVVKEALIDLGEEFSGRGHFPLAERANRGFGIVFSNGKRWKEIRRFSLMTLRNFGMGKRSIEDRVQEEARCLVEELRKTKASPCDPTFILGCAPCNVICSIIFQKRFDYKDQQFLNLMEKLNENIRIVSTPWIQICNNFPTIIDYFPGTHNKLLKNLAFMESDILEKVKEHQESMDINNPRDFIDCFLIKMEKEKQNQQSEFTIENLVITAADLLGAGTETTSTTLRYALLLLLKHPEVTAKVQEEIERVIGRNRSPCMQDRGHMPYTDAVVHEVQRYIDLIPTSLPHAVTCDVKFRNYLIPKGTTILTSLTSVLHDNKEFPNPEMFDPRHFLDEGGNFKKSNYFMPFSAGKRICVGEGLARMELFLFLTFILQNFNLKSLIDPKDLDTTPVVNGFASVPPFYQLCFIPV
Cytochrome P450 2D6, sequence (P10635 whole entry): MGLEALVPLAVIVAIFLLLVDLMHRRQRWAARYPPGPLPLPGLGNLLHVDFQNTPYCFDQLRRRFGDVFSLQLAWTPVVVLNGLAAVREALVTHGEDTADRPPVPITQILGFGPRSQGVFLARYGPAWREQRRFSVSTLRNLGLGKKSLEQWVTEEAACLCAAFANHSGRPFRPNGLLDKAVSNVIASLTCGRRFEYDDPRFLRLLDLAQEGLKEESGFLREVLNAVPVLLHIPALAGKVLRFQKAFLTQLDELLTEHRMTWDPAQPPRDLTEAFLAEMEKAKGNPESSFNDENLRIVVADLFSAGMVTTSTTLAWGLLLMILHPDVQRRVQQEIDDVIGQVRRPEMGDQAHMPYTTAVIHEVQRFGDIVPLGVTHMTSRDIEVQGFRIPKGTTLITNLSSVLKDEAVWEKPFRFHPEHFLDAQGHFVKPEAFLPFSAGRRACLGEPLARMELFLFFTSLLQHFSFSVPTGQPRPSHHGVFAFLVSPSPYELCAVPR

With `CC(C)(O)c1ccc(-c2cccc(N(CC34CCC(c5noc(C(C)(C)F)n5)(CC3)CC4)C(=O)[C@H]3C[C@](O)(C(F)(F)F)C3)c2)cc1`, the IC50 in series [1] was 4.5 µM; in series [5] it was above 20 µM; in series [9], 1.4 µM; in series [10], 8 µM; in [12], above 20 µM; in series [17], above 20 µM. Moreover, the half-life in series [2] is 16 h; in [16], 18 h. Further, the AUC amounted to 56.6 µM·h in series [3] and 6.6 µM·h in series [4]. Also, the remaining at 10 min in series [6] was 93%. Further, the values for the Emax in [7] and in [15] were 601% and 89%, respectively. Moreover, the Activity result in series [8] is “Dde”; in series [13], “Dde”; in [14] it was “Non-Toxic”. Moreover, in [11], the EC50 came out at 0.034 µM.
